Tests used:
[1] = Stability test of crystal forms of Compound B (Test Example 1); format: physicochemical; conditions: for thermodynamic stability of the crystal form: Test Example 1, storage at 90° C.; for crystal form transformation on storage: storage at 90° C.; for Crystal form after 14 days: stored at 90° C.
Protocol: Different crystal forms of Compound B were placed in glass bottles, respectively, and the glass bottles were hermetically sealed and stored at 90° C. Samples were taken out after 1 day, 5 days, and 14 days, and dissolved in methanol at a concentration of 1 mg/mL to determine related substances by HPLC. With respect to the crystals after 14 days, the crystal form was checked.

[2] = Solvent suspending test of form-I crystal in different solvents (Test Example 2); format: physicochemical; conditions: for Crystal form after 30 minutes at room temperature: stirring
Protocol: The form-I crystal of the present invention was mixed with different solvents, and stirring was performed at room temperature for 30 minutes. The formed crystals were obtained by filtration, and the crystal forms were determined.

PGI2 receptor = PGI2 receptor (Homo sapiens, UniProt P43119); conditions: cited from earlier work
[3] = 90° C., after 1 day, hermetically sealed glass bottle
[4] = 90° C., after 5 days, hermetically sealed glass bottle
[5] = 90° C., after 14 days, hermetically sealed glass bottle
[6] = hermetically sealed glass bottle

PGI2 receptor, sequence (P43119 whole entry, species assumed): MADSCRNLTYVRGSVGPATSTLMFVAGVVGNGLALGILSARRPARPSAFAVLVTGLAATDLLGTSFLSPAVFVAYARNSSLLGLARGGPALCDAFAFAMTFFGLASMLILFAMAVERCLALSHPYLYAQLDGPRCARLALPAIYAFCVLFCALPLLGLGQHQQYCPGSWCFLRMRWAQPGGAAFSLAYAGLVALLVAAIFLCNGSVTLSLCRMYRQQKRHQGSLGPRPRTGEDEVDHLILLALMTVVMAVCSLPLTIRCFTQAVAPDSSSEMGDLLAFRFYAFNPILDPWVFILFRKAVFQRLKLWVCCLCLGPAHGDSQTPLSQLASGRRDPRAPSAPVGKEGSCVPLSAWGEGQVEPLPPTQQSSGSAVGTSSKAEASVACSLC

Appearance [1, 3]	HPLC area (%) [1, 3] [%]	Appearance [1, 4]	HPLC area (%) [1, 4] [%]	Appearance [1, 5]	HPLC area (%) [1, 5] [%]	Appearance ([1]; Before storage)	HPLC area (%) ([1]; Before storage)	crystal form transformation on storage [1]	Crystal form after 14 days [1, 6]	Structure (SMILES)	other results
No change	99.8	No change	99.8	No change	99.6	White crystal	99.8	gradually transformed into the form-II	Form-I + Form-II	CC(C)N(CCCCOCC(=O)O)c1cnc(-c2ccccc2)c(-c2ccccc2)n1 [Form-I, 2-{4-[N-(5,6-diphenylpyrazin-2-yl)-N-isopropylamino]butyloxy}acetic acid]	thermodynamic stability of the crystal form ([1]; listed as form-I crystal): thermodynamically more stable; crystal form transformation when suspended ([2]; all the solvents, room temperature): partially transformed into the form-II crystal of the present invention; Crystal form after 30 minutes at room temperature ([2]; solvent 2-propanol): Form-I + Form-II (1:10); Crystal form after 30 minutes at room temperature ([2]; solvent cyclohexane): Form-I + Form-II (1:1); Crystal form after 30 minutes at room temperature ([2]; solvent toluene): Form-I + Form-II (10:1); Crystal form after 30 minutes at room temperature ([2]; solvent water): Form-I + Form-II (10:1)
No change	99.9	No change	99.9	No change	99.7	Yellow crystal	99.9	gradually transformed into the form-II	Form-II	CC(C)N(CCCCOCC(=O)O)c1cnc(-c2ccccc2)c(-c2ccccc2)n1 [Form-III, 2-{4-[N-(5,6-diphenylpyrazin-2-yl)-N-isopropylamino]butyloxy}acetic acid]	thermodynamic stability of the crystal form ([1]; listed as form-III crystal): thermodynamically unstable
–	–	–	–	–	–	–	–	–	–	CC(C)N(CCCCOCC(=O)O)c1cnc(-c2ccccc2)c(-c2ccccc2)n1 [Compound B, 2-{4-[N-(5,6-diphenylpyrazin-2-yl)-N-isopropylamino]butyloxy}acetic acid]	PGI2 receptor agonistic effect (PGI2 receptor): excellent
No change	100	No change	100	No change	99.9	Yellow crystal	100	–	Form-II	CC(C)N(CCCCOCC(=O)O)c1cnc(-c2ccccc2)c(-c2ccccc2)n1 [Form-II, 2-{4-[N-(5,6-diphenylpyrazin-2-yl)-N-isopropylamino]butyloxy}acetic acid]	thermodynamic stability of the crystal form [1]: thermodynamically stable; thermodynamic stability of the crystal form ([1]; listed as form-II crystal): thermodynamically more stable; thermodynamic stability of the crystal form when suspended ([2]; various solvents at room temperature): thermodynamically stable

— US20250034098A1, “CRYSTALLINE SUBSTITUTED PYRAZINES AS PGI2 RECEPTOR AGONISTS” (NIPPON SHINYAKU CO., LTD., priority 2017, published 2025)
